This is an account of results in patent US20240116985A1, “STAPLED PEPTIDES AND METHODS THEREOF” (priority 2020, published 2024).

Values after ≈ are worked out from the molar mass of the structure shown. Where two headings read alike, the source gives them in different places.

What is called Solubility is the dissolved amount per volume that the medium holds. Read a low Solubility as a poorly soluble substance.

A short description of data set [1]: CHI Log D procedure. In kind it is physicochemical. The note with it: pH 7.4.
Data set [2] can be described thus: Solubility in PBS. It is filed as physicochemical. Put shortly: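 The PBS solution was ultracentrifuged and the supernatant analyzed by HPLC. Its peak area was divided by that of a 50 μM peptide DMSO reference injection and multiplied by 50 uM to give solubility.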
For data set [3], the target named is T1, full-length beta-Catenin (Uniprot ID P35222) (Homo sapiens, UniProt P35222).
T1 construct: 10 nM full-length beta-Catenin (Uniprot ID P35222)
T1 sequence (P35222 1-781): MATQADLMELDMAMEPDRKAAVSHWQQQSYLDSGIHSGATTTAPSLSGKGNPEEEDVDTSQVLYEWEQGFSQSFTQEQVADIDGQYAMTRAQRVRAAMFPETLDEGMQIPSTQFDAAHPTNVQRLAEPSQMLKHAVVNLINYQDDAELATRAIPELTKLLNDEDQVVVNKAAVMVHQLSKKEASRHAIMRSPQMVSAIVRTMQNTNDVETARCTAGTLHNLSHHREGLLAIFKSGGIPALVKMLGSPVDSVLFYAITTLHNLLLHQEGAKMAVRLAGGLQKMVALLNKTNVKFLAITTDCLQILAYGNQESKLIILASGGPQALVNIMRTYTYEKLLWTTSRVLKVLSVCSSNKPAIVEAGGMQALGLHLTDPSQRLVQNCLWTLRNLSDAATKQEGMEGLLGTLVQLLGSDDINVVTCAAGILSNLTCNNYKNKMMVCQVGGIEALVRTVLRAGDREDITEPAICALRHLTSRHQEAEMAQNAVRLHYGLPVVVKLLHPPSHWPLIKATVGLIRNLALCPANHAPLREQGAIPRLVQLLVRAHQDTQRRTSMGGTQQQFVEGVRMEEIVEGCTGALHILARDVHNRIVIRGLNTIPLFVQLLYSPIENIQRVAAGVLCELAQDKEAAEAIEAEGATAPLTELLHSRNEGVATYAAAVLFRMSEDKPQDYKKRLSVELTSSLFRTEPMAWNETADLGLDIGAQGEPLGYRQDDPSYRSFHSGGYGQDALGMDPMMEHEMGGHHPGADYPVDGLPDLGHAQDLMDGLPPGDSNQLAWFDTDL
In words: Fluorescence polarization IC50 (beta-catenin / 5FAM-TCF4 10-53 competition). In kind it is binding. A general note: Polarisation of emitted light reports the rotation of a fluorescent probe.

The mark [4] stands for this setting: fluorescence polarization, beta-catenin, read-out: FP EC50.

In the case of `CC(=O)N1CCC[C@]12CC=CCCCC1(CCCC=CCCCOC(=O)N3CC[C@@](C(=O)N[C@@H](Cc4ccsc4)C(=O)N[C@@H](Cc4csc5ccccc45)C(=O)N[C@@H](CO)C(N)=O)(C3)NC(=O)[C@H]([C@@H](C)O)NC(=O)[C@H](Cc3ccccc3)NC(=O)[C@H](C)NC(=O)[C@H](C)NC(=O)[C@H](CN(CC(=O)O)CC(F)(F)F)NC(=O)[C@H](CC(=O)O)NC1=O)NC(=O)[C@H](CC(C)(C)C)NC(=O)[C@H](CC(=O)O)NC2=O` (stereo partly drawn) [I-957, Ac-PL3-Asp-Npg-B5-Asp-TfeGA-Ala-Ala-Phe-Thr-PyrS2-3Thi-BztA-Ser-NH2], in data set [1], the “CHI Log D” value was −0.043. Also, the “Solubility” value in data set [2] is 46 µM (≈ 90.9 µg/mL). For the same compound, the IC50 in data set [3] (setting [4]) and in data set [3] (read-out: beta-Catenin FP IC50) was 1.43 µM each time.
Turning to `CC(=O)N1CCC[C@]12CC=CCCCC1(CCCC=CCCCOC(=O)N3CC[C@@](C(=O)N[C@@H](Cc4ccsc4)C(=O)N[C@@H](Cc4csc5ccccc45)C(=O)N[C@@H](CO)C(N)=O)(C3)NC(=O)[C@H](CCO)NC(=O)[C@H](Cc3ccccc3)NC(=O)[C@H](C)NC(=O)[C@H](C)NC(=O)[C@H](CN(CC(=O)O)CC(F)(F)F)NC(=O)[C@H](CC(=O)O)NC1=O)NC(=O)[C@H](CC(C)(C)C)NC(=O)[C@H](CC(=O)O)NC2=O` (stereo partly drawn) [I-958, Ac-PL3-Asp-Npg-B5-Asp-TfeGA-Ala-Ala-Phe-Hse-PyrS2-3Thi-BztA-Ser-NH2], in data set [1], the “CHI Log D” value is on record as 1.417. Besides, in data set [2], the “Solubility” value turned out to be 47 µM (≈ 92.8 µg/mL). Besides, the IC50 in data set [3] (setting [4]) and in data set [3] (read-out: beta-Catenin FP IC50) was 0.606 µM throughout.
Regarding `CC(=O)N1CCC[C@]12CC=CCCCC1(CCCC=CCCCOC(=O)N3CC[C@@](C(=O)N[C@@H](Cc4ccsc4)C(=O)N[C@@H](Cc4csc5ccccc45)C(=O)N[C@@H](CO)C(N)=O)(C3)NC(=O)[C@H](CCO)NC(=O)[C@H](Cc3ccccc3)NC(=O)[C@H](C)NC(=O)[C@H](C)NC(=O)[C@H](CN(CC(=O)O)CC(F)(F)F)NC(=O)[C@H](CC(=O)O)NC1=O)NC(=O)[C@H](CC(C)(C)C)NC(=O)[C@H](CC(=O)O)NC2=O` (stereo partly drawn) [I-959, Ac-PL3-Asp-Npg-B5-Asp-TfeGA-Ala-Ala-Phe-Hse-PyrS2-3Thi-BztA-Ser-NH2], the “CHI Log D” value in data set [1] is −0.036. The “Solubility” value in data set [2] turned out to be 48 µM (≈ 94.8 µg/mL). For the same compound, the IC50 in data set [3] (setting [4]) and in data set [3] (read-out: beta-Catenin FP IC50) was 0.881 µM throughout.
On to `CC(=O)N1CCC[C@]12CC=CCCCC1(CCCC=CCCCOC(=O)N3CC[C@@](C(=O)N[C@@H](Cc4ccsc4)C(=O)N[C@@H](Cc4csc5ccccc45)C(=O)N[C@@H](CO)C(N)=O)(C3)NC(=O)[C@H](CC(C)C)NC(=O)[C@H](Cc3ccccc3)NC(=O)[C@H](C)NC(=O)[C@H](C)NC(=O)[C@H](CN(CC(=O)O)CC(F)(F)F)NC(=O)[C@H](CC(=O)O)NC1=O)NC(=O)[C@H](CC(C)(C)C)NC(=O)[C@H](CC(=O)O)NC2=O` (stereo partly drawn) [I-960, Ac-PL3-Asp-Npg-B5-Asp-TfeGA-Ala-Ala-Phe-Leu-PyrS2-3Thi-BztA-Ser-NH2], for which, in data set [1], the “CHI Log D” value came out at 2.06. Further, the “Solubility” value in data set [2] amounted to 13 µM (≈ 25.8 µg/mL). Besides, the IC50 in data set [3] (setting [4]) and in data set [3] (read-out: beta-Catenin FP IC50) was 0.336 µM throughout.
As for `CC(=O)N1CCC[C@]12CC=CCCCC1(CCCC=CCCCOC(=O)N3CC[C@@](C(=O)N[C@@H](Cc4ccsc4)C(=O)N[C@@H](Cc4csc5ccccc45)C(=O)N[C@@H](CO)C(N)=O)(C3)NC(=O)[C@H](CC(C)C)NC(=O)[C@H](Cc3ccccc3)NC(=O)[C@H](C)NC(=O)[C@H](C)NC(=O)[C@H](CN(CC(=O)O)CC(F)(F)F)NC(=O)[C@H](CC(=O)O)NC1=O)NC(=O)[C@H](CC(C)(C)C)NC(=O)[C@H](CC(=O)O)NC2=O` (stereo partly drawn) [I-961, Ac-PL3-Asp-Npg-B5-Asp-TfeGA-Ala-Ala-Phe-Leu-PyrS2-3Thi-BztA-Ser-NH2], the “CHI Log D” value in data set [1] is 2.123. The “Solubility” value in data set [2] came to 10 µM (≈ 19.9 µg/mL). Moreover, the IC50 in data set [3] (setting [4]) and in data set [3] (read-out: beta-Catenin FP IC50) was 0.357 µM in each case.
Take `CCN(CC(=O)O)C[C@@H]1NC(=O)[C@H](CC(=O)O)NC(=O)C2(CCCC=CCCCOC(=O)N3CC[C@@](C(=O)N[C@@H](Cc4ccsc4)C(=O)N[C@@H](Cc4csc5ccccc45)C(=O)N[C@@H](CCC(N)=O)C(N)=O)(C3)NC(=O)[C@H](CC(N)=O)NC(=O)[C@H](Cc3ccccc3)NC(=O)[C@H](C)NC(=O)[C@H](C)NC1=O)CCCC=CC[C@]1(CCCN1C(C)=O)C(=O)N[C@@H](CC(=O)O)C(=O)N[C@@H](CC(C)(C)C)C(=O)N2` (stereo partly drawn) [I-964, Ac-PL3-Asp-Npg-B5-Asp-EtGA-Ala-Ala-Phe-Asn-PyrS2-3Thi-BztA-Gln-NH2]: in data set [1], the “CHI Log D” value is on record as 1.802. The “Solubility” value in data set [2] came to 46 µM (≈ 90.9 µg/mL). Also, the IC50 in data set [3] (setting [4]) and in data set [3] (read-out: beta-Catenin FP IC50) was 1.44 µM each time.
On to `CCN(CC(=O)O)C[C@@H]1NC(=O)[C@H](CC(=O)O)NC(=O)C2(CCCC=CCCCOC(=O)N3CC[C@@](C(=O)N[C@@H](Cc4ccsc4)C(=O)N[C@@H](Cc4csc5ccccc45)C(=O)N[C@@H](CCC(N)=O)C(N)=O)(C3)NC(=O)[C@H](CC(N)=O)NC(=O)[C@H](Cc3ccccc3)NC(=O)[C@H](C)NC(=O)[C@H](C)NC1=O)CCCC=CC[C@]1(CCCN1C(C)=O)C(=O)N[C@@H](CC(=O)O)C(=O)N[C@@H](CC(C)(C)C)C(=O)N2` (stereo partly drawn) [I-965, Ac-PL3-Asp-Npg-B5-Asp-EtGA-Ala-Ala-Phe-Asn-PyrS2-3Thi-BztA-Gln-NH2], for which the “CHI Log D” value in data set [1] was 1.903. Moreover, the “Solubility” value in data set [2] worked out at 45 µM (≈ 88.9 µg/mL). Besides, the IC50 in data set [3] (setting [4]) and in data set [3] (read-out: beta-Catenin FP IC50) was 1.78 µM each time.
`CCN(CC(=O)O)C[C@@H]1NC(=O)[C@H](CC(=O)O)NC(=O)C2(CCCC=CCCCOC(=O)N3CC[C@@](C(=O)N[C@@H](Cc4ccsc4)C(=O)N[C@@H](Cc4csc5ccccc45)C(=O)N[C@@H](CCC(N)=O)C(N)=O)(C3)NC(=O)[C@H](CO)NC(=O)[C@H](Cc3ccccc3)NC(=O)[C@H](C)NC(=O)[C@H](C)NC1=O)CCCC=CC[C@]1(CCCN1C(C)=O)C(=O)N[C@@H](CC(=O)O)C(=O)N[C@@H](CC(C)(C)C)C(=O)N2` (stereo partly drawn) [I-966, Ac-PL3-Asp-Npg-B5-Asp-EtGA-Ala-Ala-Phe-Ser-PyrS2-3Thi-BztA-Gln-NH2]: in data set [1], the “CHI Log D” value was 1.791. Also, the “Solubility” value in data set [2] was determined as 43 µM (≈ 83.8 µg/mL). In addition, the IC50 in data set [3] (setting [4]) and in data set [3] (read-out: beta-Catenin FP IC50) was 2.02 µM in each case.
Turning to `CCN(CC(=O)O)C[C@@H]1NC(=O)[C@H](CC(=O)O)NC(=O)C2(CCCC=CCCCOC(=O)N3CC[C@@](C(=O)N[C@@H](Cc4ccsc4)C(=O)N[C@@H](Cc4csc5ccccc45)C(=O)N[C@@H](CCC(N)=O)C(N)=O)(C3)NC(=O)[C@H](CO)NC(=O)[C@H](Cc3ccccc3)NC(=O)[C@H](C)NC(=O)[C@H](C)NC1=O)CCCC=CC[C@]1(CCCN1C(C)=O)C(=O)N[C@@H](CC(=O)O)C(=O)N[C@@H](CC(C)(C)C)C(=O)N2` (stereo partly drawn) [I-967, Ac-PL3-Asp-Npg-B5-Asp-EtGA-Ala-Ala-Phe-Ser-PyrS2-3Thi-BztA-Gln-NH2], in data set [1], the “CHI Log D” value was determined as 1.884. Moreover, the “Solubility” value in data set [2] amounted to 45 µM (≈ 87.7 µg/mL). Further, the IC50 in data set [3] (setting [4]) and in data set [3] (read-out: beta-Catenin FP IC50) was 1.74 µM in each case.
In the case of `CCN(CC(=O)O)C[C@@H]1NC(=O)[C@H](CC(=O)O)NC(=O)C2(CCCC=CCCCOC(=O)N3CC[C@@](C(=O)N[C@@H](Cc4ccsc4)C(=O)N[C@@H](Cc4csc5ccccc45)C(=O)N[C@@H](CCC(N)=O)C(N)=O)(C3)NC(=O)[C@H]([C@@H](C)O)NC(=O)[C@H](Cc3ccccc3)NC(=O)[C@H](C)NC(=O)[C@H](C)NC1=O)CCCC=CC[C@]1(CCCN1C(C)=O)C(=O)N[C@@H](CC(=O)O)C(=O)N[C@@H](CC(C)(C)C)C(=O)N2` (stereo partly drawn) [I-968, Ac-PL3-Asp-Npg-B5-Asp-EtGA-Ala-Ala-Phe-Thr-PyrS2-3Thi-BztA-Gln-NH2], in data set [1], the “CHI Log D” value came to 1.752. Further, in data set [2], the “Solubility” value was 30 µM (≈ 58.9 µg/mL). Besides, the IC50 in data set [3] (setting [4]) and in data set [3] (read-out: beta-Catenin FP IC50) was 2.98 µM in each case.
Consider `CCN(CC(=O)O)C[C@@H]1NC(=O)[C@H](CC(=O)O)NC(=O)C2(CCCC=CCCCOC(=O)N3CC[C@@](C(=O)N[C@@H](Cc4ccsc4)C(=O)N[C@@H](Cc4csc5ccccc45)C(=O)N[C@@H](CCC(N)=O)C(N)=O)(C3)NC(=O)[C@H]([C@@H](C)O)NC(=O)[C@H](Cc3ccccc3)NC(=O)[C@H](C)NC(=O)[C@H](C)NC1=O)CCCC=CC[C@]1(CCCN1C(C)=O)C(=O)N[C@@H](CC(=O)O)C(=O)N[C@@H](CC(C)(C)C)C(=O)N2` (stereo partly drawn) [I-969, Ac-PL3-Asp-Npg-B5-Asp-EtGA-Ala-Ala-Phe-Thr-PyrS2-3Thi-BztA-Gln-NH2], for which the “CHI Log D” value in data set [1] amounted to 1.851. In data set [2], the “Solubility” value was determined as 46 µM (≈ 90.3 µg/mL). Further, the IC50 in data set [3] (setting [4]) and in data set [3] (read-out: beta-Catenin FP IC50) was 2.32 µM each time.
